From patent publication US10947216B2, “Amide compounds and method for making and using” (Rigel Pharmaceuticals, Inc., priority 2016, dated 2021)

Tests used:
[1] = tested on: IL-23p19; experiment: LPS Induced IL23p19 in THP-1 Cells (with IFNγ Primed) Assay; type: cell-based, human; conditions: Homo sapiens, THP-1, THP-1 cells, IFNγ (50 ng/mL) primed, 1 hour compound pre-incubation, LPS 1 ug/mL 18 hours, 10 pt; read-out: IL23-p19 ELISA, THP1-IFNy, LPS, 10 pt EC50
Summary of the method: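 THP-1 cells (50K/well) primed ~18 h with IFNγ (50 ng/mL) in RPMI/10% FBS, then incubated with compound in duplicate for 18 h at 37° C. Supernatant IL-23p19 measured by chemiluminescent sandwich ELISA, giving EC50 by curve fitting. Toxicity assessed in parallel on the remaining cells by Cell Titer Glo.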

[2] = tested on: IL-23 (p19/p40); experiment: IL23-p19 ELISA, dendritic cells (DC differentiated from human PBMC, IFNγ primed), LPS stimulated; type: cell-based; conditions: Dendritic cell, human PBMC-derived dendritic cells, 1 h compound pre-incubation, LPS 1 μg/ml 18 hours, 10 pt
Summary of the method: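 PBMC-derived DCs (GM-CSF 100 ng/ml + IL-4 20 ng/ml, 7 days) primed 24 h with IFNγ 50 ng/ml, 50K cells/well; compound pre-incubated 1 h at 37° C, then LPS, 18 h. Supernatant IL-23 by p19-capture/p40-detection chemiluminescent ELISA; cytotoxicity by Cell Titer Glo.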

| EC50 [1] | EC50 [2] | SMILES |
| --- | --- | --- |
| 29.4 µM | 1.18 µM | Cn1cc(NC(=O)c2ccnc(-c3cc[nH]n3)n2)c(-c2ccccn2)n1 [Compound I-138, N-(1-methyl-3-(pyridin-2-yl)-1H-pyrazol-4-yl)-2-(1H-pyrazol-3-yl)pyrimidine-4-carboxamide] |
| 64.1 µM | 9.85 µM | Cn1cc(NC(=O)c2cccc(-c3ccncc3)n2)c(-c2cnccn2)n1 [Compound I-100, N-(1-methyl-3-(pyrazin-2-yl)-1H-pyrazol-4-yl)-[2,4′-bipyridine]-6-carboxamide] |
| 7.58 µM | 3.17 µM | Cn1cc(NC(=O)c2cccc(-c3cn[nH]c3)n2)c(N2CCCC2)n1 [Compound I-72, N-(1-methyl-3-(pyrrolidin-1-yl)-1H-pyrazol-4-yl)-6-(1H-pyrazol-4-yl)picolinamide] |
| 5.9 µM | 4.12 µM | Cn1cc(NC(=O)c2cccc(-c3cc[nH]c3)n2)c(-c2ccccn2)n1 [Compound I-11, N-(1-methyl-3-(pyridin-2-yl)-1H-pyrazol-4-yl)-6-(1H-pyrrol-3-yl)picolinamide] |
| 1.26 µM | 2.72 µM | Cn1cc(NC(=O)c2cccc(-c3cccnc3)n2)c(-c2ccccn2)n1 [Compound I-2, N-(1-methyl-3-(pyridin-2-yl)-1H-pyrazol-4-yl)-[2,3′-bipyridine]-6-carboxamide] |
| 1.34 µM | 0.531 µM | Cn1cc(NC(=O)c2cccc(-c3cncc(C4CC4)c3)n2)c(-c2ccccn2)n1 [Compound I-13, 5′-cyclopropyl-N-(1-methyl-3-(pyridin-2-yl)-1H-pyrazol-4-yl)-[2,3′-bipyridine]-6-carboxamide] |
| 0.643 µM | 0.832 µM | Cc1n[nH]cc1-c1cccc(C(=O)Nc2cn(C)nc2-c2ccccn2)n1 [Compound I-78, 6-(3-methyl-1H-pyrazol-4-yl)-N-(1-methyl-3-(pyridin-2-yl)-1H-pyrazol-4-yl)picolinamide] |
| 77.2 µM | 7.88 µM | Cn1cc(NC(=O)c2cccc(C3=CCCNC3)n2)c(-c2ccccn2)n1 [Compound I-65, N-(1-methyl-3-(pyridin-2-yl)-1H-pyrazol-4-yl)-1′,2′,5′,6′-tetrahydro-[2,3′-bipyridine]-6-carboxamide] |
